We go through 11 molecules from publication PMC6340938, “Three Novel ACE Inhibitory Peptides Isolated From Ginkgo biloba Seeds: Purification, Inhibitory Kinetic and Mechanism” (Frontiers in Pharmacology, 2019).

Where two headings read alike, the source gives them in different places. Where no end group is shown, it is not given here.

The conditions of data set [1]: currently used blood pressure lowering drugs; ref Yu et al., 2018; cited from earlier work. The text has this: As per the World Health Organization estimate, CVD accounts for the mortality of more than 17.5 million people every year. Among the important characteristics of CVD, hypertension is an essential target for the prevention and treatment of CVD ([Celermajer et al., 2012]). […] Lately, signific ...

Data set [2] concerns ACE. The conditions noted are these: 2017, cited from earlier work; for ACE inhibitory activity (in words): peptides containing hydrophobic amino acid (Leu), ref Lee and Hur; for Inhibition mode: ref Lin et al. The source says: According to report by [Hernández-Ledesma et al. (2011)], most of the ACE inhibiting peptides were short sequences consisting of 2–12 amino acids. In addition, the activity of the ACE-inhibiting peptide was strongly related to the pres ... || The mode of inhibition of ACE-inhibiting peptides was observed generally non-competitive, competitive, and mixed.

The target in data set [3] is T1, angiotensin converting enzyme (ACE) (Homo sapiens, UniProt P12821). The data set can be described thus: ACE inhibitory activity, HHL substrate, RP-HPLC of hippuric acid. The data set is classed as biochemical. The following applies: synthetic peptides, purity >95%; HHL 5 mM, borate pH 8.3, 0.3 M NaCl, 37°C, 45 min, ACE 50 mU/mL; RP-HPLC 228 nm; mean, n = 3. How it is done:
This test was performed as per the descriptions are given by the previous report by [O’Loughlin et al. (2014)] with some modifications. Briefly, the substrate hippuryl-histidyl-leucine (HHL, 5 mM) and samples were mixed in 0.1 M Na2[B4O5(OH)4] (pH 8.3) with 0.3 M sodium chloride. Then after, 50 μL of sample and 150 μL of the substrate were added to a centrifuge tube, mixed and allowed to stand in water at 37°C for 5 min. Subsequently, the ACE solution (50 mU/mL) was added and incubated at 37°C for 45 min. The reaction was terminated by adding 250 μL of 1M HCl and the solution was filtered through […] nylon syringe filter before being analyzed by RP-HPLC (Waters, Milford, MA, United States) on an Inertsil ODS-3 (250 × 4.6 mm, 5 μm particle size). The mobile phase comprised of distilled water: acetonitrile = 75:25 (V/V, with 0.1% TFA) with a flow rate of 0.5 mL/min and detection at 228 nm. Captopril was used as a control and the inhibitory activity (%) was determined as below:
ACE inhibitory activity (%)=[(A−B)/A]×100
where A was the peak area of hippuric acid with the sample, B was without the sample.

The target of data set [4] is T1, angiotensin converting enzyme (ACE). The data set can be described thus: Kinetics of ACE inhibition, Lineweaver-Burk plot. The format is biochemical. The conditions noted are these: HHL 0.5, 1, 2, 5 mM, peptide 0, 15, 30 μM. Here is the method:
The kinetic inhibition model of G. biloba peptide was tested using the method of [Lin et al. (2017)]. Briefly, different concentrations of substrate HHL (0.5, 1, 2, and 5 mM) were allowed to react with ACE. The Lineweaver-Burk plot was based on the reciprocal of the reaction rate (1/v) and the substrate concentration (1/[s]). The intercepts on the X- and Y-axes represented the reciprocals of Km and Vmax, respectively.
FIGURE 5 The Lineweaver-Burk plot of the inhibitory effects on ACE activities of peptides. (A) TNLDWY, (B) RADFY, and (C) RVFDGAV. The ACE activities were determined in the absence and presence of different concentrations of the peptides (0, 15, and 30 μM).

[5] abbreviates: Qula casein and hazelnut peptides, Liu et al., 2018.

T1 sequence (P12821 30-1306, species assumed): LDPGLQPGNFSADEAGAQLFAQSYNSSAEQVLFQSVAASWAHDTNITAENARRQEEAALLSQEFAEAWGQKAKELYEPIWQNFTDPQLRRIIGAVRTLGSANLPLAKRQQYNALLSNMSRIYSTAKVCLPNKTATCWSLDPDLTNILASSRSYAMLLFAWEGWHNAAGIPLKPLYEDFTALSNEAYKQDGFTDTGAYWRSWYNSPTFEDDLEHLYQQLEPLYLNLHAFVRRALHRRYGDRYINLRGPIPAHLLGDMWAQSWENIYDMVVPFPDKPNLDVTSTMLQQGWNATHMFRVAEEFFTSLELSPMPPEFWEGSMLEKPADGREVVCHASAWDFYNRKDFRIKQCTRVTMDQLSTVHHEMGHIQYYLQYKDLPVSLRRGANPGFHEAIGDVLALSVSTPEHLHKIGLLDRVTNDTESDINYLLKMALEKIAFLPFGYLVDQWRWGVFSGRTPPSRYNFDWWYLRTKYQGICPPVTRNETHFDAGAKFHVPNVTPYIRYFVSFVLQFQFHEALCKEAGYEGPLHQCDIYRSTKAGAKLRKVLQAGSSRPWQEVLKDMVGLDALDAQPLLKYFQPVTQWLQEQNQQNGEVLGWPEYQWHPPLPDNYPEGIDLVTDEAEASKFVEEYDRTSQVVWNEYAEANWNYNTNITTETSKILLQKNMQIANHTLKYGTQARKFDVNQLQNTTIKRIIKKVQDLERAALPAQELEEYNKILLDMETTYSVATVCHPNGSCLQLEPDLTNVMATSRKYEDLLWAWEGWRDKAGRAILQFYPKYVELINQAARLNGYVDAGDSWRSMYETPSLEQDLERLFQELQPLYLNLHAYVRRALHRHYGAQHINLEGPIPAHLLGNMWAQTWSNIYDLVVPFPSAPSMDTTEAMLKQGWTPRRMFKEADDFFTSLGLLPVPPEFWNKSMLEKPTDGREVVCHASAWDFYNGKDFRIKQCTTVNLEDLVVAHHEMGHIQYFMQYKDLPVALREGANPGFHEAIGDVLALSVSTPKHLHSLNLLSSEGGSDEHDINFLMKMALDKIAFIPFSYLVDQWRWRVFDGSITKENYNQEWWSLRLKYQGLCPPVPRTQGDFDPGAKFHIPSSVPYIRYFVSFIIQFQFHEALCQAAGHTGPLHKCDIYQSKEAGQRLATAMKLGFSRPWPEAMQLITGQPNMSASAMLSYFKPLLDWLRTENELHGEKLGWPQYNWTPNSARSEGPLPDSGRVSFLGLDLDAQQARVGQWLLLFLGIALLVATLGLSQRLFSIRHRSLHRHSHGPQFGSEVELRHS

Take `C[C@H](CS)C(=O)N1CCC[C@H]1C(=O)O` [captopril]: the Adverse reactions result in data set [1] is “cough, rash, and headache”.
For `CCOC(=O)[C@H](CCc1ccccc1)N[C@@H](C)C(=O)N1CCC[C@H]1C(=O)O` [enalapril], the Adverse reactions entry in data set [1] was “cough, rash, and headache”.
On to KPLL, for which, in data set [2], the “ACE inhibitory activity (in words)” value is reported as “appreciable ACE inhibitory activity”.
Turning to KYIPIQ [peptide from Qula casein], the Inhibition mode result in data set [2] (peptides from Qula casein) was “competitive inhibition mode”.
Take LPLPLL [peptide from Qula casein]: in data set [2] (peptides from Qula casein), the Inhibition mode result is on record as “competitive inhibition mode”.
On to PFPGPIPN, for which the Inhibition mode result in data set [2] (setting [5]) is reported as “non-competitive”.
On to RADFY [RADFY, Arg-Ala-Asp-Phe-Tyr], for which the IC50 – broadly, the concentration that gives 50% inhibition – in data set [3] came to 1350 µM. In data set [4], the “Effect on Km” value is on record as “Km increased with the increasing peptide concentration”.
On to “RVFDGAV [RVFDGAV, Arg-Val-Phe-Asp-Gly-Ala-Val]”, for which half-maximal inhibition in data set [3] (IC50) was put at 1010 µM. Further, in data set [4], the “Effect on Km” value was “Km increased with the increasing peptide concentration”.
Taken in the same sequence, the figures for “TNLDWY [TNLDWY, Thr-Asn-Leu-Asp-Trp-Tyr]” were 1930 µM and “Km did not change significantly with peptide concentration”.
Take VLAQYK: the “ACE inhibitory activity (in words)” value in data set [2] is on record as “appreciable ACE inhibitory activity”.
Consider YLVR [hazelnut peptide], for which the Inhibition mode result in data set [2] (setting [5]) was “non-competitive”.
